Laboratory results from US20260355196A1, “INHIBITORS AND DEGRADERS OF PIP4K PROTEIN” (Larkspur Biosciences, Inc., priority 2023, published 2026).

Biological target: T1, PIP4K2C (Homo sapiens, UniProt Q8TBX8)
T1 sequence (Q8TBX8 1-421): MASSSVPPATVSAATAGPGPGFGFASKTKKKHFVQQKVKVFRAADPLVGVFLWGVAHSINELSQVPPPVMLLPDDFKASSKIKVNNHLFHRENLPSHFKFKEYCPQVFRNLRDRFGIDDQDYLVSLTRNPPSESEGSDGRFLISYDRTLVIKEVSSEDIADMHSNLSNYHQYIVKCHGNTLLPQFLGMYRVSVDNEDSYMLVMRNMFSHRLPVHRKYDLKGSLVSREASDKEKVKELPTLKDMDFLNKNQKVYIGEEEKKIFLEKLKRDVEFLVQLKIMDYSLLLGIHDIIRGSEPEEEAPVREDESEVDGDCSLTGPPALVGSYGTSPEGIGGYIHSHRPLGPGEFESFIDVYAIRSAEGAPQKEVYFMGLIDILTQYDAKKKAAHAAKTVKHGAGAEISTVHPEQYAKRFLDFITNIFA
Assay: HiBiT PIP4K2C degradation assay in MOLT-4 cells (endogenous PIP4K2C C-terminally tagged with HiBiT)
Assay type: cell-based
Set-up: untagged in primary human PBMCs and monocyte-derived dendritic cells
Details: 6 hours of incubation time, rather than 24 hours; MOLT-4, top concentration 10 micromolar; read-out: HiBIT-degradation MOLT4 PIP4k2C DC50 (6 hours, marked *)
How it was run: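 DC50 derived by Hill fit of luminescence from Nano-Glo HiBiT lytic detection. Cells were HiBiT knock-in MOLT-4 (C-terminal tag on endogenous PIP4K2C), exposed 6 h or 24 h at 37 C to compound, top concentration 10 micromolar, 3-fold steps, 10 points, duplicates.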

With `O=C1CCC(Nc2ccc(C3CCN([C@H]4CC[C@H](C(=O)N[C@H]5CC[C@H](Nc6ncc(F)c(-c7cccc(N8CCOCC8=O)n7)n6)CC5)CC4)CC3)c(F)c2)C(=O)N1` (stereo partly drawn) [Compound 538, trans-(1r,4R)-4-(4-(4-((2,6-dioxopiperidin-3-yl)amino)-2-fluorophenyl)piperidin-1-yl)-N-((1r,4R)-4-((5-fluoro-4-(6-(3-oxomorpholino)pyridin-2-yl)pyrimidin-2-yl)amino)cyclohexyl)cyclohexane-1-carboxamide] the DC50 was > 5000 nM.

In the case of `Cn1nc(N2CCC(=O)NC2=O)c2cc(F)c(C3CCN(CC4CCN(C(=O)[C@H]5CC[C@H](Nc6ncc(F)c(-c7cccc(-n8ccccc8=O)c7)n6)CC5)CC4)CC3)cc21` [Compound 540, trans-1-(5-fluoro-6-(1-((1-((1r,4r)-4-((5-fluoro-4-(3-(2-oxopyridin-1(2H)-yl)phenyl)pyrimidin-2-yl)amino)cyclohexane-1-carbonyl)piperidin-4-yl)methyl)piperidin-4-yl)-1-methyl-1H-indazol-3-yl)dihydropyrimidine-2,4(1H,3H)-dione], the DC50 is reported as > 5000 nM.

For `O=C1CCC(Nc2ccc(N3CCN([C@H]4CC[C@H](C(=O)N[C@H]5CC[C@H](Nc6ncc(F)c(-c7cccc(N8CCCCC8)c7)n6)CC5)CC4)CC3)c(F)c2)C(=O)N1` (stereo partly drawn) [Compound 541, trans-4-(4-(4-((2,6-dioxopiperidin-3-yl)amino)-2-fluorophenyl)piperazin-1-yl)-N-(trans-4-((5-fluoro-4-(3-(piperidin-1-yl)phenyl)pyrimidin-2-yl)amino)cyclohexyl)cyclohexane-1-carboxamide], the DC50 was < 500 nM.

`O=C1CC[C@H](Nc2ccc(N3CCC(N4CCC(C(=O)N[C@H]5CC[C@H](Nc6ncc(F)c(-c7cccc(N8CCCOC8=O)c7)n6)CC5)CC4)CC3)c(F)c2)C(=O)N1` [Compound 542, 1′-(4-(((S)-2,6-dioxopiperidin-3-yl)amino)-2-fluorophenyl)-N-((trans)-4-((5-fluoro-4-(3-(2-oxo-1,3-oxazinan-3-yl)phenyl)pyrimidin-2-yl)amino)cyclohexyl)-[1,4′-bipiperidine]-4-carboxamide] was tested, and the DC50 was < 500 nM.

`O=C1CC[C@@H](Nc2ccc(N3CCC(N4CCC(C(=O)N[C@H]5CC[C@H](Nc6ncc(F)c(-c7cccc(N8CCCOC8=O)c7)n6)CC5)CC4)CC3)c(F)c2)C(=O)N1` [Compound 543, 1′-(4-(((R)-2,6-dioxopiperidin-3-yl)amino)-2-fluorophenyl)-N-((trans)-4-((5-fluoro-4-(3-(2-oxo-1,3-oxazinan-3-yl)phenyl)pyrimidin-2-yl)amino)cyclohexyl)-[1,4′-bipiperidine]-4-carboxamide] was tested, and the DC50 was < 500 nM.

`O=C1CC[C@@H](Nc2ccc(N3CCN([C@H]4CC[C@H](C(=O)N[C@H]5CC[C@H](Nc6ncc(F)c(-c7cccc(-c8ccc[nH]c8=O)c7)n6)CC5)CC4)CC3)c(F)c2)C(=O)N1` [Compound 544, trans-4-(4-(4-(((R)-2,6-dioxopiperidin-3-yl)amino)-2-fluorophenyl)piperazin-1-yl)-N-((trans)-4-((5-fluoro-4-(3-(2-oxo-1,2-dihydropyridin-3-yl)phenyl)pyrimidin-2-yl)amino)cyclohexyl)cyclohexane-1-carboxamide] was tested, and the DC50 was < 500 nM.

With `O=C1CCC(Nc2ccc(C3CCN([C@H]4CC[C@H](NC(=O)[C@H]5CC[C@H](Nc6ncc(F)c(-c7cccc(N8CCOCC8=O)n7)n6)CC5)CC4)CC3)c(F)c2)C(=O)N1` (stereo partly drawn) [Compound 545, trans-N-(trans-4-(4-(4-((2,6-dioxopiperidin-3-yl)amino)-2-fluorophenyl)piperidin-1-yl)cyclohexyl)-4-((5-fluoro-4-(6-(3-oxomorpholino)pyridin-2-yl)pyrimidin-2-yl)amino)cyclohexane-1-carboxamide] the DC50 was < 500 nM.

`O=C1CCC(Nc2ccc(C3CCN([C@H]4CC[C@H](NC(=O)[C@H]5CC[C@H](Nc6ncc(F)c(-c7cccc(N8CCCCC8=O)n7)n6)CC5)CC4)CC3)c(F)c2)C(=O)N1` (stereo partly drawn) [Compound 546, trans-N-(trans-4-(4-(4-((2,6-dioxopiperidin-3-yl)amino)-2-fluorophenyl)piperidin-1-yl)cyclohexyl)-4-((5-fluoro-4-(6-(2-oxopiperidin-1-yl)pyridin-2-yl)pyrimidin-2-yl)amino)cyclohexane-1-carboxamide] was tested, and the DC50 was < 500 nM.

`O=C1CCC(Nc2ccc(C3CCN([C@H]4CC[C@H](NC(=O)[C@H]5CC[C@H](Nc6ncc(F)c(-c7cccc(N8CCOCC8=O)c7)n6)CC5)CC4)CC3)c(F)c2)C(=O)N1` (stereo partly drawn) [Compound 547, trans-N-(trans-4-(4-(4-((2,6-dioxopiperidin-3-yl)amino)-2-fluorophenyl)piperidin-1-yl)cyclohexyl)-4-((5-fluoro-4-(3-(3-oxomorpholino)phenyl)pyrimidin-2-yl)amino)cyclohexane-1-carboxamide] was tested, and the DC50 was < 500 nM.

With `O=C1CCC(Nc2ccc(C3CCN([C@H]4CC[C@H](NC(=O)[C@H]5CC[C@H](Nc6ncc(F)c(-c7ccnc(C8(O)CCC8)c7)n6)CC5)CC4)CC3)c(F)c2)C(=O)N1` (stereo partly drawn) [Compound 548, trans-N-(trans-4-(4-(4-((2,6-dioxopiperidin-3-yl)amino)-2-fluorophenyl)piperidin-1-yl)cyclohexyl)-4-((5-fluoro-4-(2-(1-hydroxycyclobutyl)pyridin-4-yl)pyrimidin-2-yl)amino)cyclohexane-1-carboxamide] the DC50 was < 500 nM.

For `O=C1CCC(Nc2ccc(C3CCN([C@H]4CC[C@H](NC(=O)[C@H]5CC[C@H](Nc6ncc(F)c(-c7ccnc(N8CCCCC8=O)c7)n6)CC5)CC4)CC3)c(F)c2)C(=O)N1` (stereo partly drawn) [Compound 549, trans-N-(trans-4-(4-(4-((2,6-dioxopiperidin-3-yl)amino)-2-fluorophenyl)piperidin-1-yl)cyclohexyl)-4-((5-fluoro-4-(2-(2-oxopiperidin-1-yl)pyridin-4-yl)pyrimidin-2-yl)amino)cyclohexane-1-carboxamide], the DC50 was < 500 nM.

With `O=C1CCC(Nc2ccc(C3CCN([C@H]4CC[C@H](NC(=O)[C@H]5CC[C@H](Nc6ncc(F)c(-c7ccnc(N8CCCOC8=O)c7)n6)CC5)CC4)CC3)c(F)c2)C(=O)N1` (stereo partly drawn) [Compound 550, trans-N-((trans)-4-(4-(4-((2,6-dioxopiperidin-3-yl)amino)-2-fluorophenyl)piperidin-1-yl)cyclohexyl)-4-((5-fluoro-4-(2-(2-oxo-1,3-oxazinan-3-yl)pyridin-4-yl)pyrimidin-2-yl)amino)cyclohexane-1-carboxamide] the DC50 was < 500 nM.

For `Cc1ccc(=O)n(-c2cccc(-c3nc(N[C@H]4CC[C@H](C(=O)N[C@H]5CC[C@H](N6CCC(c7ccc(NC8CCC(=O)NC8=O)cc7F)CC6)CC5)CC4)ncc3F)c2)c1` (stereo partly drawn) [Compound 551, trans-N-(trans-4-(4-(4-((2,6-dioxopiperidin-3-yl)amino)-2-fluorophenyl)piperidin-1-yl)cyclohexyl)-4-((5-fluoro-4-(3-(5-methyl-2-oxopyridin-1 (2H)-yl)phenyl)pyrimidin-2-yl)amino)cyclohexane-1-carboxamide], the DC50 was < 500 nM.

With `O=C1CCC(Nc2ccc(C3CCN(CC4CCN(C(=O)[C@H]5CC[C@H](Nc6ncc(F)c(-c7cccc(N8CCOCC8=O)c7)n6)CC5)CC4)CC3)c(F)c2)C(=O)N1` (stereo partly drawn) [Compound 552, trans-3-((3-fluoro-4-(1-((1-(4-((5-fluoro-4-(3-(3-oxomorpholino)phenyl)pyrimidin-2-yl)amino)cyclohexane-1-carbonyl)piperidin-4-yl)methyl)piperidin-4-yl)phenyl)amino)piperidine-2,6-dione] the DC50 was < 500 nM.

With `O=C1CCC(Nc2ccc(N3CCN(CC4CCN(C(=O)[C@H]5CC[C@H](Nc6ncc(F)c(-c7cccc(N8CCOCC8=O)c7)n6)CC5)CC4)CC3)c(F)c2)C(=O)N1` (stereo partly drawn) [Compound 553, trans-3-((3-fluoro-4-(4-((1-(4-((5-fluoro-4-(3-(3-oxomorpholino)phenyl)pyrimidin-2-yl)amino)cyclohexane-1-carbonyl)piperidin-4-yl)methyl)piperazin-1-yl)phenyl)amino)piperidine-2,6-dione] the DC50 was < 500 nM.

`O=C1CCC(Nc2ccc(C3CCN(CC4CCN(C(=O)[C@H]5CC[C@H](Nc6ncc(F)c(-c7cccc(C8CC8)c7)n6)CC5)CC4)CC3)c(F)c2)C(=O)N1` (stereo partly drawn) [Compound 554, trans-3-((4-(1-((1-(4-((4-(3-cyclopropylphenyl)-5-fluoropyrimidin-2-yl)amino)cyclohexane-1-carbonyl)piperidin-4-yl)methyl)piperidin-4-yl)-3-fluorophenyl)amino)piperidine-2,6-dione] was tested, and the DC50 was < 500 nM.

With `O=C1CCC(Nc2ccc(N3CCN(CC4CCN(C(=O)[C@H]5CC[C@H](Nc6ncc(F)c(-c7cccc(C8CC8)c7)n6)CC5)CC4)CC3)c(F)c2)C(=O)N1` (stereo partly drawn) [Compound 555, trans-3-[4-[4-[[1-[4-[[4-(3-cyclopropylphenyl)-5-fluoro-pyrimidin-2-yl]amino]cyclohexanecarbonyl]-4-piperidyl]methyl]piperazin-1-yl]-3-fluoro-anilino]piperidine-2,6-dione] the DC50 was < 500 nM.

For `O=C1CCC(Nc2ccc(C3CCN([C@H]4CC[C@H](C(=O)N[C@H]5CC[C@H](Nc6ncc(F)c(-c7cccc(N8CCCCC8)c7)n6)CC5)CC4)CC3)c(F)c2)C(=O)N1` (stereo partly drawn) [Compound 556, trans-(1r,4R)-4-(4-(4-((2,6-dioxopiperidin-3-yl)amino)-2-fluorophenyl)piperidin-1-yl)-N-((1r,4R)-4-((5-fluoro-4-(3-(piperidin-1-yl)phenyl)pyrimidin-2-yl)amino)cyclohexyl)cyclohexane-1-carboxamide], the DC50 was < 500 nM.
